We go through one compound from ChEMBL document CHEMBL3091280, “Synthesis and Cytotoxicity of Semisynthetic Withalongolide A Analogues” (ACS Med Chem Lett, 2013).

One test deals with MRC5. The test can be described thus: Cytotoxicity against human MRC5 cells after 72 hrs by MTS assay. Format: cell-based. The conditions noted are these: MRC5, 72 h.
A further test deals with SK-MEL-28. The experiment in a line: Cytotoxicity against human SK-MEL-28 cells after 72 hrs by MTS assay. Format: functional, cell-based. Particulars: SK-MEL-28, 72 h.
For the next test, the system named is MDA-MB-231. The test can be described thus: Cytotoxicity against human MDA-MB-231 cells after 72 hrs by MTS assay. The conditions noted are these: MDA-MB-231, 72 h. Format: functional, cell-based. In general terms: Formazan colour is commonly taken as a measure of viable cells.
The nature of test [1]: Cytotoxicity against human JMAR cells after 72 hrs by MTS assay. Type of test: functional, cell-based.
A short description of test [2]: Cytotoxicity against human DRO 81-1 cells after 72 hrs by MTS assay. Format: functional, cell-based.

For `CC1=C(CO)C(=O)O[C@@H]([C@@H](C)[C@H]2CC[C@H]3[C@@H]4C[C@H]5O[C@]56[C@@H](O)C=CC(=O)[C@]6(C)[C@H]4CC[C@]23C)C1` [WITHAFERIN A], the IC50 (in general, the concentration that inhibits the measured activity by half) in the test on MRC5 turned out to be 2700 nM; in the test on SK-MEL-28, 1000 nM; with MDA-MB-231, 540 nM; in test [1], 1000 nM; in test [2], 780 nM.
